One experiment concerns H358 lung cancer cells. The experiment in a line: [3H]-thymidine incorporation DNA synthesis assay. Format: cell-based. As to conditions: data not shown. The method, then: (A) Structures of 1a, and the acetylated side chain of a lysine residue within the polypeptide chain of a protein targeted by the acetylating enzyme (R1 and R2 are the main chain elements on both sides of the lysyl residue). (B) [^3H]-thymidine incorporation into DNA of H358 cells pulsed for 6 hrs at three different time points after the addition of increasing concentrations of 1a, i.e., at 6-12 hrs (12 hr curve), at 18-24 hours (24 hr curve), or at 42-48 hrs (48 hr curve). Incorporation is represented as a percentage relative to control (untreated) cells. (C) Cell cycle analysis of propidium iodide-stained cells harvested at various times after addition of 50 μM 1a. % of cells in G1, S, and G2 represents the average of two independent profiles. (D) Western analysis of histone H3 lysine 9 acetylation, histone H3 lysine 56 acetylation, histone H3 lysine 9 methylation, and total histone H3, before “c” or at the indicated times after addition of 50 μM 1a. Each lane represents 60 μg cellular protein.
Control cells were left untreated. […] Control cells were left untreated.
Cells were either labeled immediately before treatment (starting DNA synthesis rate), or subjected to the indicated treatments and then pulsed on successive days until day 4. DNA synthesis is represented as the percent of starting DNA synthesis rate. Viability was determined for each treatment condition 24 hours post-start of treatment by the trypan blue exclusion assay, with percentages of viable cells indicated to the right of the graph.
H358 cells (2,000/well) in 96-well plates were treated with 1, 10 or 50 μM of spd-1a, spd-2a, spd-3a, spm3, or spm2 for 12 hours. Triplicate wells of cells were pulsed 6 hours with 0.5 μCi [^3H]-thymidine (NEN, Boston Mass.) post-start of drug treatment, and harvested onto filter paper using a Brandel Harvester and subjected to scintillation counting. Untreated cells were pulsed 0-6 hrs to establish the initial rate of incorporation.
Cells were plated in 96-well plates (2000 cells per well to insure conditions for exponential growth for untreated cells over the time course of the experiment) and exposed to the following treatments: 1a (50 μM); camptothecin (Sigma, St Louis, Mo. 5 nM, 18 hours); cisplatin (Platinol, obtained through local pharmacies, 2 μM, 1 hour 15 minutes), 5-fluorouracil (5FU, Adrucil™, obtained through local pharmacies, 2 μM, 1 hour 15 minutes), Taxotere (provided by the late Dr. Pierre Potier, 5 nM, 18 hours). UVC treatment (40 J/m^2) using a Stratalinker™, Stratagene, La Jolla, Calif.) was carried using medium lacking phenol red. At 0-6 hr, 18-24 hr (day 1), 42-48 hr […], 66-72 hr (day 3), and 90-96 hr (day 4) post-start of treatment, triplicate wells were incubated with 0.5 μCi [^3H]-thymidine (NEN, Boston Mass.), harvested onto filter paper, and subjected to scintillation counting. Trypan blue exclusion assays for cell membrane integrity were carried out as known in the art.
The present inventors used [^3H]-thymidine incorporation assays to examine DNA synthesis in H358 lung cancer cells in the presence of varying concentrations of 1a. Cells were pulsed for 6 hours with [^3H]-thymidine at three different time points after the addition of 1a (i.e., at 6-12 hours, at 18-24 hours, and at 42-48 hours). The incorporation of [^3H]-thymidine into DNA decreased with increasing concentrations of 1a at all three time points, with the maximal effect occurring with the 6-12 hour pulse (FIG. 2B).
We then used [^3H]-thymidine incorporation assays to examine DNA synthesis in H358 lung cancer cells in the presence of 1a alone, or together with an 18 hour exposure to the DNA damaging drug, camptothecin (CPT), a plant alkaloid from which an important class of topoisomerase I-targeted chemotherapeutic agents (Hycamtin [topotecan] and Camptosar [irinotecan]) has been derived (Garcia-Carbonero, et al, 2002, Clin Cancer Res 8: 641-61). […]
For orientation: Dividing cells build labelled thymidine or BrdU into new DNA.

In experiment [1] the test system is endogenous HATs associated with solubilized chromatin. As to conditions: literature (Bandyopadhyay et al 2009; Parello et al. 1990); cited from earlier work.
For the next experiment, the system named is MCF7 breast cancer cells. The note with it: single agent; DFMO 100 μM, 5FU 2 μM 18 hrs, doxorubicin 100 nM 18 hr; spd-2a with no siRNA or control siRNA. As for the experimental part:
(A) [^3H]-thymidine incorporation into DNA of H358 cells (left panel) or MCF-7 cells (right panel) during a 6 hour pulse ending at the indicated time points after initiation of treatment. Treatments were 50 μM 1a alone, 5 nM camptothecin alone (CPT, 18 hours), 50 μM 1a+5 nm CPT (18 hours). Control cells were left untreated. (B) 2-day 96-well viability assays of H358 cells (left panel) or MCF-7 cells (right panel) grown in presence of increasing concentrations of 1a (continuous), with or without an 18-hour treatment with 5 nM camptothecin (CPT). Cell viability, represented as a percent of untreated cell viability (i.e., no 1a, no CPT), was determined 2 days post-start of treatment by the MTS bioconversion assay (MTS=(3-(4,5′-dimethylthiazol-2-yl)-5-(3-carboxymethoxylphenyl-2-(4-sulfophenyl)-2H-tetrazolium salt). Each data point represents the average of triplicate wells. Assays were carried out under conditions such that untreated cells remained in exponential growth. (C) [^3H]-thymidine incorporation into DNA of H358 cells carried out as in part “A”. Treatment consisted of 1a alone (50 μM), or cisplatin (2 μM, 1 hour, 15 minutes) alone or together with 1a (Panel 1); or UVC (40 J/m^2), alone or together with 1a (Panel 2); or 5-fluorouracil (5FU, 2 μM, 18 hours) alone or together with 1a (Panel 3), or Taxotere™ (5 nM, 18 hours), alone or together with 1a (Panel 4). Control cells were left untreated. Symbols are as follows: (-◯-) untreated control; (-●-) 50 μM 1a, (-∇-) drug or UVC alone; (-▾-) combination 1a+drug or UVC.
Viability was measured 3 days after the start of treatment and is expressed as a percentage of control (untreated) cell viability.
Each point is average of triplicates.
Date of exp: 7-17-2010; located p.21 in Hat notebook: KB-2 (2010-2011).
Cells were plated in 96-well plates (3000 cells per well) and incubated 18 hours with or without 5 nM camptothecin (Sigma, St Louis, Mo.). Triplicate wells were then treated with varying doses of 1a (from 0-50 μM). Control cells received neither 1a nor camptothecin. 2-day viability was determined by the MTS assay as previously (Saadatmandi et al., 2002, Cancer Gene Therapy, 9: 830-9) and expressed as a percentage of control cell viability.
The present inventors carried out 96-well viability assays as we have previously described (Saadatmandi et al, Cancer Gene Therapy (2002) 9:830-9), in which MCF7 breast cancer cells were plated at 3000 cells per well. After overnight attachment, triplicate wells were treated with increasing doses of inhibitor 1a. Control wells were left untreated. After 3 days, cell viability was measured by the MTS assay, which measures the bioconversion of an uncolored substrate to a colored formazan derivative, and is proportional to cell number. […]

The next experiment relates to γ-H2A.X in H358 cells. Kind of experiment: double strand break / gamma-H2A.X Western and co-immunoprecipitation. Format: cell-based. The note with it: 18 hours post-start; 1a 50 μM, 5FU 2 μM, cisplatin 2 μM, camptothecin 5 nM. The method, then: Also shown are controls for no treatment (“c” minus 1a) or treatment with 1a only (“c” plus 1a). Each lane represents 60 μg protein. […] Each lane represents 60 μg protein.
To measure DSB repair, cells were incubated for 1 hour with 10 μM camptothecin to induce DSBs, followed by incubation in the presence or absence of 50 μM 1a. At fixed times, histones were prepared by extraction in 0.2M H2SO4 as described previously and 50 μg extract was analyzed by 12% SDS-PAGE followed Western analysis as described previously, using rabbit polyclonal anti-γ-H2A.X [phosphor ser 139] (Novus Biologicals, Littleton, Colo.) or anti-H3 (Upstate Biotechnology, Inc, Lake Placid, N.Y.). Band intensities were quantitated digitally. To study acetylation of γ-H2A.X, we carried out co-immunoprecipitation analysis using 50 μg extract protein in immunoprecipitation buffer (10 mM sodium phosphate pH 7, 0.15 M NaCl, 0.1% SDS, 1% NP40, 1% sodium deoxycholate, aprotinin, 1 mM PMSF, complete protease inhibitors (Roche) using immobilized anti-acetyl-lysine (Millipore, Temecula, Calif.) in the immunoprecipitation step. The immunoprecipitated material was then analyzed as for Western analysis using anti γ-H2A.X.
Double strand breaks (DSBs) can be formed by a variety of DNA damaging agents, including camptothecin, cisplatin, 5FU, and UVC radiation (Avemann K, et al., 1988, Mol Cell Biol, 8: 3026-34; Bogdanov K V, et al. 1997, Br J Haematol, 98:869-72; Pavon M A, et al., Int J Cancer, 2008, 123:1068-79) implying that DSB repair may play a role in reducing their cellular toxicity. To examine how 1a treatment affects DSB repair in H358 cells we made use of the fact that the histone variant, H2A.X becomes phosphorylated at sites of double strand breaks (denoted γ-H2A.X), and can be detected by immunoblot analysis of acid extracted cells (Rogaku E P, et al., 1999, J Cell Biol, 146:905-16). […] Total H3 levels and H2A.X levels (control) are unaffected by these treatments (FIG. 4B). […]

For experiment [2], the system named is MDA MB-435 breast cancer cells. The experiment in a line: 72 hr viability assay. As to conditions: DFMO 100 μM, 5FU 2 μM 18 hrs, doxorubicin 100 nM 18 hr. Format: cell-based.
For the next experiment, the system named is DLD-1 colon cancer. The experiment in a line: subcutaneous DLD-1 tumor model in nude mice. Format: in vivo, nude mouse. As to conditions: DFMO alone, intratumoral, 2 mg/kg. As for the experimental part: Tumors were initiated By subcutaneous implantation of […] DLD-1 colon cancer cells. […] Tumors were measured and volumes calculated as in FIG. 14.
Tumors were initiated by injecting 10^6 DLD-1 cells (from ATCC) per mouse (female nude mouse, 4-5 weeks, Harlan Labs) subcutaneously in the flank. (A) When the average tumor size reached 26 mm^3, animals were randomized into 2 groups (3 per group). One group was left untreated and served as the control (-●-). […] Tumors were measured bidirectionally at 2-3 day intervals and tumor volumes were calculated (v=½L×w^2). A paired t-test was used to evaluate the significance of the differences between the two groups of animals. […] (B) Tumors were initiated as in part (A). When tumors reached an average size of about 30 mm^3, animals were randomized into three groups of 2 animals each. The control group (-●-) received no treatment. The DFMO group (-▪-) received intratumoral injections of DFMO (2 mg/kg) on days 1, 7, 9 (5 PM), and 2, 8, 10 (9 AM, 5 PM). […] Tumors were measured and volumes calculated as in part (A). A paired t-test was used to evaluate the significance of the difference between the curves.

For `CC(C)(COP(=O)(O)OP(=O)(O)OC[C@H]1O[C@@H](n2cnc3c(N)ncnc32)[C@H](O)[C@@H]1OP(=O)(O)O)[C@@H](O)C(=O)NCCC(=O)NCCSCC(=O)NCCCCNCCCN` [1b, spermidine [N8]-CoA], the “inhibitory activity against DNA synthesis in vivo, isomers compared” value in the experiment on H358 lung cancer cells is listed as “comparable inhibitory activity”. Moreover, the “inhibitory activity against endogenous HAT” value in experiment [1] was “comparable inhibitory activity”.

For `O=c1[nH]cc(F)c(=O)[nH]1` [5FU, 5-Fluorouracil], the “3-day / 72 hr cell viability, single agent” value (“3-day / 72 hr cell viability” for short) in the experiment with MCF7 breast cancer cells is reported as “minimal effects”. Besides, the “γ-H2A.X level, single agent” value in the experiment on γ-H2A.X in H358 cells is listed as “weakly detectable”. In experiment [2], the “72 hr cell viability, single agent” value is recorded as “minimal effects”.

Consider `NCCC[C@](N)(C(=O)O)C(F)F` [DFMO, α-difluoromethylornithine], for which the “3-day / 72 hr cell viability” value with MCF7 breast cancer cells is “ineffective”. Also, the “72 hr cell viability, single agent” value in experiment [2] is “ineffective”. Also, in the experiment on DLD-1 colon cancer, the “tumor volume difference versus control” value is listed as “not significant”.

With `N.N.[Cl][Pt][Cl]` [cisplatin, cis-diamminedichloro-platinium], the “γ-H2A.X level, single agent” value in the experiment with γ-H2A.X in H358 cells is on record as “weakly detectable”.

For `COc1cccc2c1C(=O)c1c(O)c3c(c(O)c1C2=O)C[C@@](O)(C(=O)CO)C[C@@H]3O[C@H]1C[C@H](N)[C@H](O)[C@H](C)O1` [doxorubicin], the “3-day / 72 hr cell viability” value in the experiment on MCF7 breast cancer cells was “minimal effects”. The “72 hr cell viability, single agent” value in experiment [2] was “minimal effects”.

Source of the values: US9107879B1, “Methods of increasing the cytotoxicity of chemotherapeutic agents with multisubstrate inhibitors of histone, protein-lys, polyamine acetylation, and polyamine metabolism” (Vanderbilt University, priority 2010, dated 2015).
